Experimental data reported in US20190330224A1, “ACC INHIBITORS AND USES THEREOF” (Gilead Apollo, LLC, priority 2015, published 2019).
pIC50: −log10 of the molar value. Values after ≈ are worked out from the molar mass of the structure shown.

Columns and labels:
Human ACC2 = Human ACC2 (Homo sapiens, UniProt O00763); assay: In vitro ACC2 inhibition assay (ADP-Glo), human ACC2; assay type: biochemical; conditions: 5 nM ACC2, 20 μM ATP, 20 μM acetyl-CoA
C. albicans ATCC 90028 = assay: Anti-Fungal Activity Assay (broth microtiter MIC), C. albicans; assay type: cell-based, Candida albicans; conditions: Candida albicans, ATCC90028, 48 h, 3 replicates; MIC recorded at 48 h; read-out: MIC C. albicans ATCC 90028
How it was run: (§1)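 MIC taken as visual growth inhibition versus the growth control, mostly at 48 h (soraphen also at 24 h). Following CLSI M27-A3, colonies grown overnight at 35° C on Sabouraud dextrose agar were suspended in RPMI 1640+MOPS; test agents came from 1 mg/mL DMSO stocks.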

C. krusei ATCC 6258 = assay: Anti-Fungal Activity Assay (broth microtiter MIC), C. krusei; assay type: cell-based, Candida krusei; conditions: Pichia kudriavzevii, ATCC6258, 48 h, 3 replicates; MIC recorded at 48 h; read-out: MIC C. krusei ATCC 6258
How it was run: as §1

[1] = system: C. parapsilosis ATCC 22019; assay: Anti-Fungal Activity Assay (broth microtiter MIC), C. parapsilosis; assay type: cell-based, Candida parapsilosis; conditions: Lodderomyces parapsilosis, ATCC22019, 48 h, 3 replicates; MIC recorded at 48 h; read-out: MIC C. parapsilosis ATCC 22019
How it was run: as §1

Fungal ACC2 = Fungal ACC2 (UniProt Q00955); conditions: read-out: Fungal ACC2 (IC50, in vitro ACC2 inhibition)
Fungal ACC2, sequence (Q00955 whole entry): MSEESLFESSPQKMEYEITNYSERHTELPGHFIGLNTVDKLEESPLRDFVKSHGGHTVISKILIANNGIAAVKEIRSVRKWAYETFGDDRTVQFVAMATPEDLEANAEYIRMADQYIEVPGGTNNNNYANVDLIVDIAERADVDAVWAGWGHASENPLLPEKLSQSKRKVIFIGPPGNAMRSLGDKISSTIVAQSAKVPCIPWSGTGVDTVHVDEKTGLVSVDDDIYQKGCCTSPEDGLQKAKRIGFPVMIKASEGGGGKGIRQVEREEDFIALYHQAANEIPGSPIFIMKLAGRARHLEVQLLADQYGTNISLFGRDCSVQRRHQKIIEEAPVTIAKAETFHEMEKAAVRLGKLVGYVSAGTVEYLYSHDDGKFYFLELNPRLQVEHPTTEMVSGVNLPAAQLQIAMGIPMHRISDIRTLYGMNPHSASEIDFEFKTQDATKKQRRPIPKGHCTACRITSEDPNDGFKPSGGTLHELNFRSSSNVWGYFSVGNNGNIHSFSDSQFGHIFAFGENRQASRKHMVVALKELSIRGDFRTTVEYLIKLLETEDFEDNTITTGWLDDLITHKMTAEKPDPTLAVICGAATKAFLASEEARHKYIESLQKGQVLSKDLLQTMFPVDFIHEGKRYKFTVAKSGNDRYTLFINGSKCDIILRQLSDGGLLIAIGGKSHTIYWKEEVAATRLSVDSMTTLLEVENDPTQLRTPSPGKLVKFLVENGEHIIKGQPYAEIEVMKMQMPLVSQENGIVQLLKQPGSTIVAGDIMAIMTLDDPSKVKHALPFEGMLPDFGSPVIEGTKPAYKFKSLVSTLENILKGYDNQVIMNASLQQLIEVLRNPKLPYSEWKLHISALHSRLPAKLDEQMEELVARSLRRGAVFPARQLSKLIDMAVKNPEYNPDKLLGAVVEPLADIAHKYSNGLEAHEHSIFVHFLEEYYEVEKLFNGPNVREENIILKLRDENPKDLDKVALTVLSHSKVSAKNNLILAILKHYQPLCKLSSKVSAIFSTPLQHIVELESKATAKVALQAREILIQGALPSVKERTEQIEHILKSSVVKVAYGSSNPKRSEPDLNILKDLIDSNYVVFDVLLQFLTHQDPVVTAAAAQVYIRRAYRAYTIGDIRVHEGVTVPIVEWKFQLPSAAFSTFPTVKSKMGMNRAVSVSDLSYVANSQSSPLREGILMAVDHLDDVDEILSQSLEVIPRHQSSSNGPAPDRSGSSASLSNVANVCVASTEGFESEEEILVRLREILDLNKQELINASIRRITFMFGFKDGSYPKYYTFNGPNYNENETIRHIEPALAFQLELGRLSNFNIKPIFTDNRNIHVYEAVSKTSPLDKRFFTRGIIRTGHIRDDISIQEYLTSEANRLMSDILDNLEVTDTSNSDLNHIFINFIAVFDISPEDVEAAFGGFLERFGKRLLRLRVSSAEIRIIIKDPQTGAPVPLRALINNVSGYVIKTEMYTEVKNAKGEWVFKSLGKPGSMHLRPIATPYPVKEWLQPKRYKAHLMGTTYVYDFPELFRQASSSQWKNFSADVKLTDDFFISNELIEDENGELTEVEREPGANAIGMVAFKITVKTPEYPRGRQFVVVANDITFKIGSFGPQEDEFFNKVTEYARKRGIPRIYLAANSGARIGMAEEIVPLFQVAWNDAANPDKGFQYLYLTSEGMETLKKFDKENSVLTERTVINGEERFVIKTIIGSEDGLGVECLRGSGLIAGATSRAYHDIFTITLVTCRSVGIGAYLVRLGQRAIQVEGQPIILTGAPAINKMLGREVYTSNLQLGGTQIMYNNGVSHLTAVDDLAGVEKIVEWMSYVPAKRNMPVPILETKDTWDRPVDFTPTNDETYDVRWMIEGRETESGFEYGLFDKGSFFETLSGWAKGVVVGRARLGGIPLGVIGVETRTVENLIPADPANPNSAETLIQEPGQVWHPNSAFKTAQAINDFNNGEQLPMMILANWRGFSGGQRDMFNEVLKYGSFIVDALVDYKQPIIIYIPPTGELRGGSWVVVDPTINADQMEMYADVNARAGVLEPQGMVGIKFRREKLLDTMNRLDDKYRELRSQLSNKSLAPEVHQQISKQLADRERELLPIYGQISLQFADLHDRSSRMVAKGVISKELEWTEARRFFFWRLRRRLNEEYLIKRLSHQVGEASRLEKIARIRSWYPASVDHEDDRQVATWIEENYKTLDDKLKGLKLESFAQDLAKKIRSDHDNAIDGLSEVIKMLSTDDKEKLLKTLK

Human ACC2, sequence (O00763 whole entry): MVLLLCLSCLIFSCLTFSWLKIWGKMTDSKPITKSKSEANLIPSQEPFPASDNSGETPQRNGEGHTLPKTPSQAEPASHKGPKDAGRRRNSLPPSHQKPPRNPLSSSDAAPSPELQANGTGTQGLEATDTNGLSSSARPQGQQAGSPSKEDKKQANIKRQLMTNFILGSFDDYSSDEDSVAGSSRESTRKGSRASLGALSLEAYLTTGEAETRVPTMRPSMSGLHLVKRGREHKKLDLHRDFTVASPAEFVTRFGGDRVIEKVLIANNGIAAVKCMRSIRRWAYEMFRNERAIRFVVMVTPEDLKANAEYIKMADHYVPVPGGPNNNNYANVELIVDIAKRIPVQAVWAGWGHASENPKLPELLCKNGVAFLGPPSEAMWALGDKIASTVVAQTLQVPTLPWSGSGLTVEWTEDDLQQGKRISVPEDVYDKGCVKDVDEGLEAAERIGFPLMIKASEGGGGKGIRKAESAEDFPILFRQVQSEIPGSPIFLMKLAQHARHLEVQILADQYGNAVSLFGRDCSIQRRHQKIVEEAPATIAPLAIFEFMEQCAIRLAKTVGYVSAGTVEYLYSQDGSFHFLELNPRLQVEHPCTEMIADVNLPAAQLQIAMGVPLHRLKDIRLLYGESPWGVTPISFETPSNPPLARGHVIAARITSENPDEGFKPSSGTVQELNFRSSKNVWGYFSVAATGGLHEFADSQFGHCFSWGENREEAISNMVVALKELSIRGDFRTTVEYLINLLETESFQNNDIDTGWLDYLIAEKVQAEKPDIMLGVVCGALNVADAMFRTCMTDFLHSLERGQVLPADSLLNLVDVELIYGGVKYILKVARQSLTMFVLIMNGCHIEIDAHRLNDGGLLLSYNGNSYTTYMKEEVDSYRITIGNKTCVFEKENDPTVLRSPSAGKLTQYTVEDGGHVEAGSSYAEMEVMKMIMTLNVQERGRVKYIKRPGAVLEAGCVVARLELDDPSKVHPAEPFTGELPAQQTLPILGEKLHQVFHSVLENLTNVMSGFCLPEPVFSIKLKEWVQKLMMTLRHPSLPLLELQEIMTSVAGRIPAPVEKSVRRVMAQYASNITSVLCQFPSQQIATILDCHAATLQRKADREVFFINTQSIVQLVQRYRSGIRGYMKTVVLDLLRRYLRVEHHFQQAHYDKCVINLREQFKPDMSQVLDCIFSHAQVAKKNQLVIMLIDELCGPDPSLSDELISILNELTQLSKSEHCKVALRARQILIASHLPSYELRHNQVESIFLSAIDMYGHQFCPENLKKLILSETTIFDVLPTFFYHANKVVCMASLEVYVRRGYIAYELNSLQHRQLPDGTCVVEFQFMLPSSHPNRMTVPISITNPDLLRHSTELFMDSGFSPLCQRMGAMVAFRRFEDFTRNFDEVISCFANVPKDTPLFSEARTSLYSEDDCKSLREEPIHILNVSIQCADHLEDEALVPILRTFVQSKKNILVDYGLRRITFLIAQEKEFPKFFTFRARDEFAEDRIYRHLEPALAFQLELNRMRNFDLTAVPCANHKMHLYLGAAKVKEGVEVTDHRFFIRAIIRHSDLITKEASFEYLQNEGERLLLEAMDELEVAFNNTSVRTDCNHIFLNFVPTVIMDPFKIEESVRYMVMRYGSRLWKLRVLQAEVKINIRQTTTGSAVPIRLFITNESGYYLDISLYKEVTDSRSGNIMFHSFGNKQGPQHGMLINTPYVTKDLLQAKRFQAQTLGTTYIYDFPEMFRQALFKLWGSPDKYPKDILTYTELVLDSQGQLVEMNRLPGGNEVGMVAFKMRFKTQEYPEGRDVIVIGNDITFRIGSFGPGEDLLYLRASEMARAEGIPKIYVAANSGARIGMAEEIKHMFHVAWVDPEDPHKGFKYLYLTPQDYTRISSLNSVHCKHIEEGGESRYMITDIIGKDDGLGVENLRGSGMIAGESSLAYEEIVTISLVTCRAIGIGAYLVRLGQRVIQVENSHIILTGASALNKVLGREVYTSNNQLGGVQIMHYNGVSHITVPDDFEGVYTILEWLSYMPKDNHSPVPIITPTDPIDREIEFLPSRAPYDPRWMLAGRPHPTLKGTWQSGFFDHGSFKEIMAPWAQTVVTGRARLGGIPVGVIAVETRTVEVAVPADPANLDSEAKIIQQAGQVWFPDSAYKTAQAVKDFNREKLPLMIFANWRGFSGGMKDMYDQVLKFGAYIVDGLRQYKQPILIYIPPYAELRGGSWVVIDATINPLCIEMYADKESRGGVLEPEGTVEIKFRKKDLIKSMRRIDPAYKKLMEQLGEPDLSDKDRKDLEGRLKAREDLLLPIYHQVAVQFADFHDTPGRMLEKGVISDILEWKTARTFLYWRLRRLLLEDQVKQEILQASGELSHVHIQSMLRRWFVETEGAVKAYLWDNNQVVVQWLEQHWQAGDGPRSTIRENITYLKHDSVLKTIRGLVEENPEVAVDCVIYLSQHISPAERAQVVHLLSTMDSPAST

Compound	pIC50 (Human ACC2)	MIC (C. albicans ATCC 90028)	MIC (C. krusei ATCC 6258)	MIC [1]	pIC50 (Fungal ACC2)
COc1ccc(F)cc1[C@H](Cn1c(=O)n([C@@]2(C)CCC(=O)N(C)C2)c(=O)c2c(C)c(-n3nccn3)sc21)OCCO [Compound I-143, 3-((S)-1,3-dimethyl-6-oxopiperidin-3-yl)-1-((R)-2-(5-fluoro-2-methoxyphenyl)-2-(2-hydroxyethoxy)ethyl)-5-methyl-6-(2H-1,2,3-triazol-2-yl)thieno[2,3-d]pyrimidine-2,4(1H,3H)-dione]	8.00 to 8.70	2.1 to 4 µg/mL (≈ 3.58 to 6.82 µM)	2.1 to 4 µg/mL (≈ 3.58 to 6.82 µM)	2.1 to 4 µg/mL (≈ 3.58 to 6.82 µM)	8.70 to 9.15
COc1ccc(F)cc1[C@H](Cn1c(=O)n([C@H]2CCN(C)C2=O)c(=O)c2c(C)c(-n3nccn3)sc21)O[C@H]1CC[C@@H](O)CC1 [Compound I-152, 1-((R)-2-(5-fluoro-2-methoxyphenyl)-2-(((1 s, 4S)-4-hydroxycyclohexyl)oxy)ethyl)-5-methyl-3-((S)-1-methyl-2-oxopyrrolidin-3-yl)-6-(2H-1,2,3-triazol-2-yl)thieno[2,3-d]pyrimidine-2,4(1H,3H)-dione]	8.00 to 8.70	0.25 to 1 µg/mL (≈ 0.408 to 1.63 µM)	0.25 to 1 µg/mL (≈ 0.408 to 1.63 µM)	0.25 to 1 µg/mL (≈ 0.408 to 1.63 µM)	8.00 to 8.70
COc1ccc(F)cc1[C@H](Cn1c(=O)n([C@@H]2CCN(C)C2=O)c(=O)c2c(C)c(-n3nccn3)sc21)O[C@H]1CC[C@@H](O)CC1 [Compound I-153, 1-((R)-2-(5-fluoro-2-methoxyphenyl)-2-(((1 s, 4S)-4-hydroxycyclohexyl)oxy)ethyl)-5-methyl-3-((R)-1-methyl-2-oxopyrrolidin-3-yl)-6-(2H-1,2,3-triazol-2-yl)thieno[2,3-d]pyrimidine-2,4(1H,3H)-dione]	8.00 to 8.70	0.075 to 0.24 µg/mL (≈ 0.122 to 0.392 µM)	0.25 to 1 µg/mL (≈ 0.408 to 1.63 µM)	0.25 to 1 µg/mL (≈ 0.408 to 1.63 µM)	8.70 to 9.15
COc1ccc(F)cc1[C@H](Cn1c(=O)n([C@H]2CCN(C)C2=O)c(=O)c2c(C)c(-n3nccn3)sc21)OCCCO [Compound I-154, 1-((R)-2-(5-fluoro-2-methoxyphenyl)-2-(3-hydroxy-propoxy)ethyl)-5-methyl-3-((S)-1-methyl-2-oxopyrrolidin-3-yl)-6-(2H-1,2,3-triazol-2-yl)thieno[2,3-d]pyrimidine-2,4(1H,3H)-dione]	8.00 to 8.70	2.1 to 4 µg/mL (≈ 3.67 to 6.99 µM)	0.25 to 1 µg/mL (≈ 0.437 to 1.75 µM)	2.1 to 4 µg/mL (≈ 3.67 to 6.99 µM)	8.70 to 9.15
COc1ccc(F)cc1[C@H](Cn1c(=O)n([C@@H]2CCN(C)C2=O)c(=O)c2c(C)c(-n3nccn3)sc21)OCCCO [Compound I-155, 1-((R)-2-(5-fluoro-2-methoxyphenyl)-2-(3-hydroxypropoxy)ethyl)-5-methyl-3-((R)-1-methyl-2-oxopyrrolidin-3-yl)-6-(2H-1,2,3-triazol-2-yl)thieno[2,3-d]pyrimidine-2,4(1H,3H)-dione]	8.00 to 8.70	2.1 to 4 µg/mL (≈ 3.67 to 6.99 µM)	2.1 to 4 µg/mL (≈ 3.67 to 6.99 µM)	2.1 to 4 µg/mL (≈ 3.67 to 6.99 µM)	8.70 to 9.15
COc1ccc(F)cc1[C@H](COc1nc2sc(-n3nccn3)c(C)c2c(=O)n1[C@H]1CCN(C)C1=O)OCCCO [Compound I-156, 2-((R)-2-(5-fluoro-2-methoxyphenyl)-2-(3-hydroxy-propoxy)ethoxy)-5-methyl-3-((S)-1-methyl-2-oxopyrrolidin-3-yl)-6-(2H-1,2,3-triazol-2-yl)thieno[2,3-d]pyrimidin-4(3H)-one]	< 6.00	2.1 to 4 µg/mL (≈ 3.67 to 6.99 µM)	2.1 to 4 µg/mL (≈ 3.67 to 6.99 µM)	2.1 to 4 µg/mL (≈ 3.67 to 6.99 µM)	6.00 to 7.00
COCCO[C@@H](Cn1c(=O)n([C@H]2CCN(C)C2=O)c(=O)c2c(C)c(-n3nccn3)sc21)c1cc(F)ccc1O [Compound I-157, 1-((R)-2-(5-fluoro-2-hydroxyphenyl)-2-(2-methoxyethoxy)ethyl)-5-methyl-3-((S)-1-methyl-2-oxopyrrolidin-3-yl)-6-(2H-1,2,3-triazol-2-yl)thieno[2,3-d]pyrimidine-2,4(1H,3H)-dione]	6.00 to 7.00	2.1 to 4 µg/mL (≈ 3.76 to 7.16 µM)	2.1 to 4 µg/mL (≈ 3.76 to 7.16 µM)	2.1 to 4 µg/mL (≈ 3.76 to 7.16 µM)	8.00 to 8.70
COCCO[C@@H](Cn1c(=O)n([C@@H]2CCN(C)C2=O)c(=O)c2c(C)c(-n3nccn3)sc21)c1cc(F)ccc1O [Compound I-158, 1-((R)-2-(5-fluoro-2-hydroxyphenyl)-2-(2-methoxyethoxy)ethyl)-5-methyl-3-((R)-1-methyl-2-oxopyrrolidin-3-yl)-6-(2H-1,2,3-triazol-2-yl)thieno[2,3-d]pyrimidine-2,4(1H,3H)-dione]	6.00 to 7.00	2.1 to 4 µg/mL (≈ 3.76 to 7.16 µM)	2.1 to 4 µg/mL (≈ 3.76 to 7.16 µM)	2.1 to 4 µg/mL (≈ 3.76 to 7.16 µM)	8.00 to 8.70
COc1ccc(F)cc1C(=O)Cn1c(=O)n([C@H]2CCN(C)C2=O)c(=O)c2c(C)c(-n3nccn3)sc21 [Compound I-161, (S)-1-(2-(5-fluoro-2-methoxyphenyl)-2-oxoethyl)-5-methyl-3-(1-methyl-2-oxopyrrolidin-3-yl)-6-(2H-1,2,3-triazol-2-yl)thieno[2,3-d]pyrimidine-2,4(1H,3H)-dione]	< 6.00	2.1 to 4 µg/mL (≈ 4.1 to 7.8 µM)	2.1 to 4 µg/mL (≈ 4.1 to 7.8 µM)	2.1 to 4 µg/mL (≈ 4.1 to 7.8 µM)	6.00 to 7.00
COc1ccccc1C(=O)Cn1c(=O)n([C@H]2CCN(C)C2=O)c(=O)c2c(C)c(-n3nccn3)sc21 [Compound I-163, (S)-1-(2-(2-methoxyphenyl)-2-oxoethyl)-5-methyl-3-(1-methyl-2-oxopyrrolidin-3-yl)-6-(2H-1,2,3-triazol-2-yl)thieno[2,3-d]pyrimidine-2,4(1H,3H)-dione]	< 6.00	2.1 to 4 µg/mL (≈ 4.25 to 8.09 µM)	2.1 to 4 µg/mL (≈ 4.25 to 8.09 µM)	2.1 to 4 µg/mL (≈ 4.25 to 8.09 µM)	6.00 to 7.00
COc1ccccc1[C@@H](O)Cn1c(=O)n([C@H]2CCN(C)C2=O)c(=O)c2c(C)c(-n3nccn3)sc21 [Compound I-165, 1-((R)-2-hydroxy-2-(2-methoxyphenyl)ethyl)-5-methyl-3-((S)-1-methyl-2-oxopyrrolidin-3-yl)-6-(2H-1,2,3-triazol-2-yl)thieno[2,3-d]pyrimidine-2,4(1H,3H)-dione]	7.00 to 8.00	2.1 to 4 µg/mL (≈ 4.23 to 8.06 µM)	2.1 to 4 µg/mL (≈ 4.23 to 8.06 µM)	2.1 to 4 µg/mL (≈ 4.23 to 8.06 µM)	8.00 to 8.70
COc1ccccc1C(=O)Cn1c(=O)n([C@@H]2CCN(C)C2=O)c(=O)c2c(C)c(-n3nccn3)sc21 [Compound I-167, (R)-1-(2-(2-methoxyphenyl)-2-oxoethyl)-5-methyl-3-(1-methyl-2-oxopyrrolidin-3-yl)-6-(2H-1,2,3-triazol-2-yl)thieno[2,3-d]pyrimidine-2,4(1H,3H)-dione]	6.00 to 7.00	2.1 to 4 µg/mL (≈ 4.25 to 8.09 µM)	2.1 to 4 µg/mL (≈ 4.25 to 8.09 µM)	2.1 to 4 µg/mL (≈ 4.25 to 8.09 µM)	7.00 to 8.00
COc1ccc(F)cc1[C@H](Cn1c(=O)n([C@H]2CCN(C)C2=O)c(=O)c2c(C)c(-n3nccn3)sc21)OC [Compound I-168, 1-((R)-2-(5-fluoro-2-methoxyphenyl)-2-methoxyethyl)-5-methyl-3-((S)-1-methyl-2-oxopyrrolidin-3-yl)-6-(2H-1,2,3-triazol-2-yl)thieno[2,3-d]pyrimidine-2,4(1H,3H)-dione]	7.00 to 8.00	2.1 to 4 µg/mL (≈ 3.97 to 7.57 µM)	2.1 to 4 µg/mL (≈ 3.97 to 7.57 µM)	2.1 to 4 µg/mL (≈ 3.97 to 7.57 µM)	8.00 to 8.70
COc1ccccc1[C@@H](O)Cn1c(=O)n([C@@H]2CCN(C)C2=O)c(=O)c2c(C)c(-n3nccn3)sc21 [Compound I-169, 1-((R)-2-hydroxy-2-(2-methoxyphenyl)ethyl)-5-methyl-3-((R)-1-methyl-2-oxopyrrolidin-3-yl)-6-(2H-1,2,3-triazol-2-yl)thieno[2,3-d]pyrimidine-2,4(1H,3H)-dione]	7.00 to 8.00	2.1 to 4 µg/mL (≈ 4.23 to 8.06 µM)	2.1 to 4 µg/mL (≈ 4.23 to 8.06 µM)	2.1 to 4 µg/mL (≈ 4.23 to 8.06 µM)	8.70 to 9.15
COc1ccc(F)cc1[C@H](Cn1c(=O)n([C@@H]2CCN(C)C2=O)c(=O)c2c(C)c(-n3nccn3)sc21)OC [Compound I-170, 1-((R)-2-(5-fluoro-2-methoxyphenyl)-2-methoxyethyl)-5-methyl-3-((R)-1-methyl-2-oxopyrrolidin-3-yl)-6-(2H-1,2,3-triazol-2-yl)thieno[2,3-d]pyrimidine-2,4(1H,3H)-dione]	7.00 to 8.00	2.1 to 4 µg/mL (≈ 3.97 to 7.57 µM)	2.1 to 4 µg/mL (≈ 3.97 to 7.57 µM)	2.1 to 4 µg/mL (≈ 3.97 to 7.57 µM)	8.70 to 9.15
COc1ccccc1[C@H](Cn1c(=O)n([C@H]2CCN(C)C2=O)c(=O)c2c(C)c(-n3nccn3)sc21)OC [Compound I-171, 1-((R)-2-methoxy-2-(2-methoxyphenyl)ethyl)-5-methyl-3-((S)-1-methyl-2-oxopyrrolidin-3-yl)-6-(2H-1,2,3-triazol-2-yl)thieno[2,3-d]pyrimidine-2,4(1H,3H)-dione]	7.00 to 8.00	2.1 to 4 µg/mL (≈ 4.11 to 7.83 µM)	2.1 to 4 µg/mL (≈ 4.11 to 7.83 µM)	2.1 to 4 µg/mL (≈ 4.11 to 7.83 µM)	8.00 to 8.70
COc1ccccc1[C@H](Cn1c(=O)n([C@@H]2CCN(C)C2=O)c(=O)c2c(C)c(-n3nccn3)sc21)OC [Compound I-172, 1-((R)-2-methoxy-2-(2-methoxyphenyl)ethyl)-5-methyl-3-((R)-1-methyl-2-oxopyrrolidin-3-yl)-6-(2H-1,2,3-triazol-2-yl)thieno[2,3-d]pyrimidine-2,4(1H,3H)-dione]	7.00 to 8.00	2.1 to 4 µg/mL (≈ 4.11 to 7.83 µM)	2.1 to 4 µg/mL (≈ 4.11 to 7.83 µM)	2.1 to 4 µg/mL (≈ 4.11 to 7.83 µM)	8.70 to 9.15
COc1ccc(F)cc1[C@H](Cn1c(=O)n([C@H]2CCCNC2=O)c(=O)c2c(C)c(-n3nccn3)sc21)O[C@H]1CC[C@@H](O)CC1 [Compound I-173, 1-((R)-2-(S-fluoro-2-methoxyphenyl)-2-(((1s, 4S)-4-hydroxycyclohexyl)oxy)ethyl)-5-methyl-3-((S)-2-oxopiperidin-3-yl)-6-(2H-1,2,3-triazol-2-yl)thieno[2,3-d]pyrimidine-2,4(1H, 3H)-dione]	8.00 to 8.70	2.1 to 4 µg/mL (≈ 3.43 to 6.53 µM)	2.1 to 4 µg/mL (≈ 3.43 to 6.53 µM)	2.1 to 4 µg/mL (≈ 3.43 to 6.53 µM)	8.70 to 9.15
